# Reference: US20110104080A1, “Oral Compositions for Treatment of Dry Mouth” (priority 2009, published 2011)
# Assay: Water gain (moisture uptake) of treated cotton swatches, no rinse / with rinse
# Assay type: physicochemical
# Conditions: dried
# Protocol: Table 2: Water gain (mg) for cotton swatches with different treatments. […] No-rinse samples were treated, dried then incubated to monitor moisture uptake. With rinse samples were treated, rinsed with water, dried then incubated to monitor moisture uptake. Control represents swatches treated with water only.
# For table 2, the test method is as follows: For “no rinse”: 1×1 cm cotton swatches (triplicates) are placed into a weigh boat where each is labeled according to treatment type and number. Initial weights are recorded for each sample. 500 uL of polymer solution is applied to each cotton swatch sample then reweighed as wet weight. Samples are allowed to dry overnight at room temperature conditions. Sample weights are recorded in the following morning as “no rinse”. Samples are then placed on a tray in the incubator at 37° C., 3.3% CO2, and approximately 90% humidity (the metal tray at the bottom of the incubator has plenty of distilled water in the pan to ensure constant humidity). Opening and closing the incubator door frequently causes parameters to shift so minimizing this will ensure proper control over parameter. Samples are incubated for 8 hours then reweighed. The weights represent the moisture uptake ability for the treated samples. […] Samples are weighed and placed in the incubator the following morning similar to above described procedure and weights are recorded as “with rinse”.
compound,measurement,setting,value
"OCC(O)CO [40% glycerin, glycerin]",Water gain,"No Rinse, incubated 8 hours at 37° C., approximately 90% humidity",393.3 mg
same,Water gain,"With Rinse, rinsed with water, then incubated",126.9 mg
